# In patent publication US8192962B2, “Processes for detecting toxic substances” (Daikin Industries, Ltd., priority 2001, dated 2012):
# Test system: Genes belonging to other category
# Test: DNA chip mRNA expression in yeast, genes belonging to other category (Table 9)
# Format: cell-based, Saccharomyces cerevisiae S288C
# Method in brief: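 S. cerevisiae S288C grown at 25° C. in YPD to log phase, then exposed 2 h to a toxicant at a growth-inhibiting, non-lethal concentration; untreated cells as control. Poly(A) mRNA reverse-transcribed with Cy3-dUTP or Cy5-dUTP, hybridized >12 h at 65° C. to whole-genome yeast DNA chip; value = fluorescence ratio treated/untreated.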
smiles,measurement,setting,value
"S=C([S-])NCCNC(=S)[S-].[Zn+2] [(11), zinc N,N′-ethylenebis(dithiocarbamate)]",The level of expressed mRNA in the presence of chemical substance/The level of expressed mRNA in the absence of chemical substance,yeast gene YNL083W,0.9
same,The level of expressed mRNA in the presence of chemical substance/The level of expressed mRNA in the absence of chemical substance,yeast gene YNL093W,1.6
same,The level of expressed mRNA in the presence of chemical substance/The level of expressed mRNA in the absence of chemical substance,yeast gene YNL135C,0.7
same,The level of expressed mRNA in the presence of chemical substance/The level of expressed mRNA in the absence of chemical substance,yeast gene YNL147W,1.2
same,The level of expressed mRNA in the presence of chemical substance/The level of expressed mRNA in the absence of chemical substance,yeast gene YNL196C,0.7
same,The level of expressed mRNA in the presence of chemical substance/The level of expressed mRNA in the absence of chemical substance,yeast gene YNL333W,2.0
same,The level of expressed mRNA in the presence of chemical substance/The level of expressed mRNA in the absence of chemical substance,yeast gene YNR010W,1.4
same,The level of expressed mRNA in the presence of chemical substance/The level of expressed mRNA in the absence of chemical substance,yeast gene YNR030W,1.2
same,The level of expressed mRNA in the presence of chemical substance/The level of expressed mRNA in the absence of chemical substance,yeast gene YNR034W,1.3
same,The level of expressed mRNA in the presence of chemical substance/The level of expressed mRNA in the absence of chemical substance,yeast gene YNR035C,1.5
same,The level of expressed mRNA in the presence of chemical substance/The level of expressed mRNA in the absence of chemical substance,yeast gene YNR047W,0.6
same,The level of expressed mRNA in the presence of chemical substance/The level of expressed mRNA in the absence of chemical substance,yeast gene YNR069C,2.5
same,The level of expressed mRNA in the presence of chemical substance/The level of expressed mRNA in the absence of chemical substance,yeast gene YOL005C,1.6
same,The level of expressed mRNA in the presence of chemical substance/The level of expressed mRNA in the absence of chemical substance,yeast gene YOL013C,1.4
same,The level of expressed mRNA in the presence of chemical substance/The level of expressed mRNA in the absence of chemical substance,yeast gene YOL164W,1.0
same,The level of expressed mRNA in the presence of chemical substance/The level of expressed mRNA in the absence of chemical substance,yeast gene YOR003W,0.7
same,The level of expressed mRNA in the presence of chemical substance/The level of expressed mRNA in the absence of chemical substance,yeast gene YOR023C,0.9
same,The level of expressed mRNA in the presence of chemical substance/The level of expressed mRNA in the absence of chemical substance,yeast gene YOR036W,1.3
same,The level of expressed mRNA in the presence of chemical substance/The level of expressed mRNA in the absence of chemical substance,yeast gene YOR058C,1.4
same,The level of expressed mRNA in the presence of chemical substance/The level of expressed mRNA in the absence of chemical substance,yeast gene YOR117W,1.2
same,The level of expressed mRNA in the presence of chemical substance/The level of expressed mRNA in the absence of chemical substance,yeast gene YOR124C,1.2
same,The level of expressed mRNA in the presence of chemical substance/The level of expressed mRNA in the absence of chemical substance,yeast gene YOR132W,1.3
same,The level of expressed mRNA in the presence of chemical substance/The level of expressed mRNA in the absence of chemical substance,yeast gene YOR148C,1.3
same,The level of expressed mRNA in the presence of chemical substance/The level of expressed mRNA in the absence of chemical substance,yeast gene YOR157C,1.6
same,The level of expressed mRNA in the presence of chemical substance/The level of expressed mRNA in the absence of chemical substance,yeast gene YOR181W,1.0
same,The level of expressed mRNA in the presence of chemical substance/The level of expressed mRNA in the absence of chemical substance,yeast gene YOR185C,1.2
same,The level of expressed mRNA in the presence of chemical substance/The level of expressed mRNA in the absence of chemical substance,yeast gene YOR198C,1.4
same,The level of expressed mRNA in the presence of chemical substance/The level of expressed mRNA in the absence of chemical substance,yeast gene YOR230W,1.6
same,The level of expressed mRNA in the presence of chemical substance/The level of expressed mRNA in the absence of chemical substance,yeast gene YOR259C,1.0
same,The level of expressed mRNA in the presence of chemical substance/The level of expressed mRNA in the absence of chemical substance,yeast gene YOR261C,2.1
same,The level of expressed mRNA in the presence of chemical substance/The level of expressed mRNA in the absence of chemical substance,yeast gene YOR265W,1.3
same,The level of expressed mRNA in the presence of chemical substance/The level of expressed mRNA in the absence of chemical substance,yeast gene YOR288C,1.4
same,The level of expressed mRNA in the presence of chemical substance/The level of expressed mRNA in the absence of chemical substance,yeast gene YOR298W,0.1
same,The level of expressed mRNA in the presence of chemical substance/The level of expressed mRNA in the absence of chemical substance,yeast gene YOR312C,0.8
same,The level of expressed mRNA in the presence of chemical substance/The level of expressed mRNA in the absence of chemical substance,yeast gene YOR355W,1.2
same,The level of expressed mRNA in the presence of chemical substance/The level of expressed mRNA in the absence of chemical substance,yeast gene YOR383C,1.4
same,The level of expressed mRNA in the presence of chemical substance/The level of expressed mRNA in the absence of chemical substance,yeast gene YPL089C,0.9
same,The level of expressed mRNA in the presence of chemical substance/The level of expressed mRNA in the absence of chemical substance,yeast gene YPL105C,0.6
same,The level of expressed mRNA in the presence of chemical substance/The level of expressed mRNA in the absence of chemical substance,yeast gene YPL109C,−0.2
same,The level of expressed mRNA in the presence of chemical substance/The level of expressed mRNA in the absence of chemical substance,yeast gene YPL149W,1.2
same,The level of expressed mRNA in the presence of chemical substance/The level of expressed mRNA in the absence of chemical substance,yeast gene YPL154C,1.8
same,The level of expressed mRNA in the presence of chemical substance/The level of expressed mRNA in the absence of chemical substance,yeast gene YPL177C,1.4
same,The level of expressed mRNA in the presence of chemical substance/The level of expressed mRNA in the absence of chemical substance,yeast gene YPL230W,3.1
same,The level of expressed mRNA in the presence of chemical substance/The level of expressed mRNA in the absence of chemical substance,yeast gene YPR028W,1.4
same,The level of expressed mRNA in the presence of chemical substance/The level of expressed mRNA in the absence of chemical substance,yeast gene YPR066W,0.9
same,The level of expressed mRNA in the presence of chemical substance/The level of expressed mRNA in the absence of chemical substance,yeast gene YPR081C,0.9
same,The level of expressed mRNA in the presence of chemical substance/The level of expressed mRNA in the absence of chemical substance,yeast gene YPR103W,0.9
same,The level of expressed mRNA in the presence of chemical substance/The level of expressed mRNA in the absence of chemical substance,yeast gene YPR108W,1.8
same,The level of expressed mRNA in the presence of chemical substance/The level of expressed mRNA in the absence of chemical substance,yeast gene YPR155C,0.9
same,The level of expressed mRNA in the presence of chemical substance/The level of expressed mRNA in the absence of chemical substance,yeast gene YPR185W,0.9
